The record followed here is ChEMBL document CHEMBL1135524, “2-Ethyl and 2-ethylidene analogues of 1alpha,25-dihydroxy-19-norvitamin D(3): synthesis, conformational analysis, biological activities, and docking to the modeled rVDR ligand binding domain” (2002).

The test system of test [1] is HL-60. The experiment in a line: Ability to induce differentiation of human promyelocyte HL-60 cells into monocytes. In kind it is functional. The settings on record: read-out: ED50 (the source's name).
Test [2] relates to HL-60. The test is described as follows: Ratio of average ED50 to 1-alpha,25-(OH)2D3 ED50 for differentiation assay. In kind it is functional, Homo sapiens.
The species named for test [3] is Rattus norvegicus. The test is described as follows: Bone calcium mobilization in rats maintained on a very low calcium diet at a dose 260 (pmol). The format is functional, organism-based.
Test [4] is filed under the species Rattus norvegicus. The test is described as follows: Intestinal calcium transport at dose 130 (pmol). The format is functional.
Test [5] is filed under the species Rattus norvegicus. The experiment in a line: Intestinal calcium transport at dose 260 (pmol). In kind it is functional.
For test [6], the species on record is Rattus norvegicus. The experiment in a line: (§1) Bone calcium mobilization in rats maintained on a very low calcium diet at a dose 130 (pmol). In kind it is functional, organism-based.
For test [7], the target named is T1, Vitamin D3 receptor (Sus scrofa) (UniProt A3RGC1).
T1 sequence (whole entry): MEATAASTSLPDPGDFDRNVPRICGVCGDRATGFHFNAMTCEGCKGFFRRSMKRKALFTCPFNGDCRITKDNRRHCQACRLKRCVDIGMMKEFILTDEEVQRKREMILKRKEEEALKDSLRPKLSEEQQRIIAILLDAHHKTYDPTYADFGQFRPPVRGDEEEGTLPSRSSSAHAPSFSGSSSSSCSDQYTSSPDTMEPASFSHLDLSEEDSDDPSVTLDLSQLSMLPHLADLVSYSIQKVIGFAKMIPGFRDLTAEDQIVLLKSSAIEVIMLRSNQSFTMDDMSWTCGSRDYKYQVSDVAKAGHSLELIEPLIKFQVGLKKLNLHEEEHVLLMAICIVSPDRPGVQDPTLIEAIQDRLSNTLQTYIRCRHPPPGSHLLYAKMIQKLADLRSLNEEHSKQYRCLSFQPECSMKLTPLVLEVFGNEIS
The test is described as follows: Binding affinity for porcine intestinal Vitamin D3 receptor (VDR).

The species named for test [8] is Rattus norvegicus. The description is as §1. The format is functional, organism-based. The source holds these as a separate data set.

“And” between values parts separate entries of the source, which are not always exact repeats. Equal entries are not always repeated.

On to `CCC1[C@H](O)CC(=C/C=C2\CCC[C@]3(C)[C@@H]([C@@H](C)CCCC(C)(C)O)CC[C@@H]23)C[C@H]1O` (some centres undefined) [listing 1 of 3 here], for which the EC50 with HL-60 [1] came to 130 pM. The Activity ratio with HL-60 [2] was determined as 0.05.

As to `CCC1[C@H](O)CC(=C/C=C2\CCC[C@]3(C)[C@@H]([C@H](C)CCCC(C)(C)O)CC[C@@H]23)C[C@H]1O` (some centres undefined) [listing 1 of 3 here], in the test listed under Rattus norvegicus [3], the Serum Ca2+ is 5 and 5.1.

Consider `CC=C1[C@H](O)CC(=C/C=C2\CCC[C@]3(C)[C@@H]([C@H](C)CCCC(C)(C)O)CC[C@@H]23)C[C@H]1O` [listing 1 of 3 here], for which the EC50 with HL-60 [1] (Homo sapiens, HL-60) worked out at 2000 pM. Also, the “Ca2+ transport” value in the test listed under Rattus norvegicus [4] amounted to 6.8; in the test filed under Rattus norvegicus [5], 5. Further, the Activity ratio in the test on HL-60 [2] is given as 0.8.

As to `CCC1[C@H](O)CC(=C/C=C2\CCC[C@]3(C)[C@@H]([C@H](C)CCCC(C)(C)O)CC[C@@H]23)C[C@H]1O` (some centres undefined) [listing 2 of 3 here], in the test on HL-60 [1], the EC50 is 12000 pM. Moreover, the Activity ratio in the test on HL-60 [2] is reported as 4.4. The “Ca2+ transport” value in the test filed under Rattus norvegicus [5] stood at 3.7.

`CC=C1[C@H](O)CC(=C/C=C2\CCC[C@]3(C)[C@@H]([C@H](C)CCCC(C)(C)O)CC[C@@H]23)C[C@H]1O` [listing 2 of 3 here]: the Serum Ca2+ in the test filed under Rattus norvegicus [3] is 4.5 and 4.4; in the test listed under Rattus norvegicus [6] it was 5.2 and 4.2.

Consider `CCC1[C@H](O)CC(=C/C=C2\CCC[C@]3(C)[C@@H]([C@@H](C)CCCC(C)(C)O)CC[C@@H]23)C[C@H]1O` (some centres undefined) [listing 2 of 3 here], for which the Serum Ca2+ in the test listed under Rattus norvegicus [3] amounted to 5.6.

As to `CC=C1[C@H](O)CC(=C/C=C2\CCC[C@]3(C)[C@@H]([C@@H](C)CCCC(C)(C)O)CC[C@@H]23)C[C@H]1O` [listing 1 of 3 here], the EC50 with HL-60 [1] turned out to be 150 pM. Also, the “Ca2+ transport” value worked out at 6.7 in the test listed under Rattus norvegicus [4] and 6.6 in the test filed under Rattus norvegicus [5]. Besides, the Activity ratio in the test on HL-60 [2] is 0.06.

In the case of `CC=C1[C@H](O)CC(=C/C=C2\CCC[C@]3(C)[C@@H]([C@@H](C)CCCC(C)(C)O)CC[C@@H]23)C[C@H]1O` [listing 2 of 3 here], the Serum Ca2+ in the test listed under Rattus norvegicus [3] was 8.2 and 4.4; in the test listed under Rattus norvegicus [6], 12.1 and 5.1. The ED50 in test [7] was 280 pM and 500 pM.

For the compound `C=C1/C(=C\C=C2/CCC[C@]3(C)[C@@H]([C@H](C)CCCC(C)(C)O)CC[C@@H]23)C[C@@H](O)C[C@@H]1O` [CALCITRIOL], the Serum Ca2+ in the test filed under Rattus norvegicus [3] was 5.8 (2×) and 6.4 (2×); in the test listed under Rattus norvegicus [6], 5.1; in the test filed under Rattus norvegicus [8], 5.2 and 5.7. The “Ca2+ transport” value in the test filed under Rattus norvegicus [4] is 5.5 and 4.9 and 5.2; in the test filed under Rattus norvegicus [5], 6.5 and 5.9 and 6.

Consider `CCC1[C@H](O)CC(=C/C=C2\CCC[C@]3(C)[C@@H]([C@H](C)CCCC(C)(C)O)CC[C@@H]23)C[C@H]1O` (some centres undefined) [listing 3 of 3 here], for which, in the test with HL-60 [1], the EC50 came to 460 pM. In the test with HL-60 [2], the Activity ratio came to 0.17. In the test listed under Rattus norvegicus [5], the “Ca2+ transport” value is on record as 4.

With `CCC1[C@H](O)CC(=C/C=C2\CCC[C@]3(C)[C@@H]([C@@H](C)CCCC(C)(C)O)CC[C@@H]23)C[C@H]1O` (some centres undefined) [listing 3 of 3 here], the EC50 in the test with HL-60 [1] came out at 6300 pM. Besides, the Activity ratio in the test on HL-60 [2] is 2.3. Also, the “Ca2+ transport” value in the test listed under Rattus norvegicus [5] is listed as 4.1.

As to `CC=C1[C@H](O)CC(=C/C=C2\CCC[C@]3(C)[C@@H]([C@H](C)CCCC(C)(C)O)CC[C@@H]23)C[C@H]1O` [listing 3 of 3 here], in the test with HL-60 [1], the EC50 was 4000 pM. For the same compound, the “Ca2+ transport” value in the test filed under Rattus norvegicus [4] is listed as 5.7; in the test listed under Rattus norvegicus [5], 4.4. In addition, the Activity ratio in the test with HL-60 [2] came out at 1.6.

Take `CC=C1[C@H](O)CC(=C/C=C2\CCC[C@]3(C)[C@@H]([C@@H](C)CCCC(C)(C)O)CC[C@@H]23)C[C@H]1O` [listing 3 of 3 here]: the EC50 in the test on HL-60 [1] (Homo sapiens, HL-60) is 220 pM. Besides, the “Ca2+ transport” value was determined as 5.8 in the test listed under Rattus norvegicus [4] and 9 in the test listed under Rattus norvegicus [5]. The Activity ratio in the test on HL-60 [2] was 0.09.
